# According to the supplement of paper PMC10307832:
# Legend:
# Assay in all cases: relative viability (nuclei count vs DMSO), 5 days (fraction); higher = more cells survive
# NCI-H1792 = test system: NCI-H1792
# How it was run: (§1)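 Lung cancer cell lines in 1536-well plates were dosed by pin tool the day after seeding, either with one drug alone or with a fixed anchor-drug dose plus five library-drug doses (not always all listed) in √10 steps. After 5 days, cells were fixed and their nuclei stained in one step (final 0.05% Triton X-100, 1% formaldehyde, 1 ug/ml Hoechst), then counted on 4× images. Relative viability is the nuclei count in treated wells divided by that in vehicle wells. Values are medians of duplicate plates.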
# LU99A = test system: LU99A
# How it was run: as §1
# HCC-827 = test system: HCC-827
# How it was run: as §1
# NCI-H2126 = test system: NCI-H2126
# How it was run: as §1
# SK-MES-1 = test system: SK-MES-1
# How it was run: as §1
# NCI-H727 = test system: NCI-H727
# How it was run: as §1
# NCI-H1734 = test system: NCI-H1734
# How it was run: as §1
# COR-L 105 = test system: COR-L 105
# How it was run: as §1
# BEN = test system: BEN
# How it was run: as §1
# LCLC-97TM1 = test system: LCLC-97TM1
# How it was run: as §1
# SW 1573 = test system: SW 1573
# How it was run: as §1
# EMC-BAC-2 = test system: EMC-BAC-2
# How it was run: as §1
# LOU-NH91 = test system: LOU-NH91
# How it was run: as §1
# RERF-LC-KJ = test system: RERF-LC-KJ
# How it was run: as §1
# EKVX = test system: EKVX
# How it was run: as §1
# EPLC-272H = test system: EPLC-272H
# How it was run: as §1
# NCI-H358 = test system: NCI-H358
# How it was run: as §1
# LK-2 = test system: LK-2
# How it was run: as §1
# NCI-H2087 = test system: NCI-H2087
# How it was run: as §1
# HCC-78 = test system: HCC-78
# How it was run: as §1
# NCI-H1944 = test system: NCI-H1944
# How it was run: as §1
structure (smiles),measurement,setting,value
O=c1[nH]c2ccccc2n1C1CCN(CCCC(c2ccc(F)cc2)c2ccc(F)cc2)CC1 [Pimozide] + Cc1nc(NC(=O)N2CCC[C@H]2C(N)=O)sc1-c1ccnc(C(C)(C)C(F)(F)F)c1 [Alpelisib] (partner 2 µM),relative viability,NCI-H1792; first compound 0.08 µM,0.874
same,relative viability,NCI-H1792; first compound 0.253 µM,0.661
same,relative viability,NCI-H1792; first compound 0.8 µM,0.668
same,relative viability,NCI-H1792; first compound 2.53 µM,0.575
same,relative viability,NCI-H1792; first compound 8 µM,0.836
same,relative viability,LU99A; first compound 0.08 µM,0.397
same,relative viability,LU99A; first compound 0.253 µM,0.424
same,relative viability,LU99A; first compound 0.8 µM,0.42
same,relative viability,LU99A; first compound 2.53 µM,0.484
same,relative viability,LU99A; first compound 8 µM,0.477
same,relative viability,HCC-827; first compound 0.253 µM,0.92
same,relative viability,HCC-827; first compound 0.8 µM,0.956
same,relative viability,HCC-827; first compound 2.53 µM,0.95
same,relative viability,HCC-827; first compound 8 µM,1
same,relative viability,NCI-H2126; first compound 0.08 µM,0.756
same,relative viability,NCI-H2126; first compound 0.253 µM,0.734
same,relative viability,NCI-H2126; first compound 0.8 µM,0.729
same,relative viability,NCI-H2126; first compound 2.53 µM,0.758
same,relative viability,NCI-H2126; first compound 8 µM,0.757
same,relative viability,SK-MES-1; first compound 0.08 µM,0.809
same,relative viability,SK-MES-1; first compound 0.253 µM,0.966
same,relative viability,SK-MES-1; first compound 0.8 µM,0.874
same,relative viability,SK-MES-1; first compound 2.53 µM,0.837
same,relative viability,SK-MES-1; first compound 8 µM,0.842
same,relative viability,NCI-H727; first compound 0.08 µM,0.569
same,relative viability,NCI-H727; first compound 0.253 µM,0.582
same,relative viability,NCI-H727; first compound 0.8 µM,0.729
same,relative viability,NCI-H727; first compound 2.53 µM,0.547
same,relative viability,NCI-H727; first compound 8 µM,0.519
same,relative viability,NCI-H1734; first compound 0.08 µM,0.675
same,relative viability,NCI-H1734; first compound 0.253 µM,0.664
same,relative viability,NCI-H1734; first compound 0.8 µM,0.68
same,relative viability,NCI-H1734; first compound 2.53 µM,0.744
same,relative viability,NCI-H1734; first compound 8 µM,0.769
same,relative viability,COR-L 105; first compound 0.253 µM,0.854
same,relative viability,COR-L 105; first compound 0.8 µM,0.872
same,relative viability,COR-L 105; first compound 2.53 µM,0.802
same,relative viability,COR-L 105; first compound 8 µM,0.608
same,relative viability,BEN; first compound 0.08 µM,1.08
same,relative viability,BEN; first compound 0.253 µM,1.09
same,relative viability,BEN; first compound 0.8 µM,0.961
same,relative viability,BEN; first compound 2.53 µM,0.937
same,relative viability,BEN; first compound 8 µM,1.06
same,relative viability,LCLC-97TM1; first compound 0.08 µM,0.28
same,relative viability,LCLC-97TM1; first compound 0.253 µM,0.239
same,relative viability,LCLC-97TM1; first compound 0.8 µM,0.207
same,relative viability,LCLC-97TM1; first compound 2.53 µM,0.224
same,relative viability,LCLC-97TM1; first compound 8 µM,0.271
same,relative viability,SW 1573; first compound 0.08 µM,0.795
same,relative viability,SW 1573; first compound 0.253 µM,0.788
same,relative viability,SW 1573; first compound 0.8 µM,0.764
same,relative viability,SW 1573; first compound 2.53 µM,0.91
same,relative viability,SW 1573; first compound 8 µM,0.743
same,relative viability,EMC-BAC-2; first compound 0.08 µM,0.653
same,relative viability,EMC-BAC-2; first compound 0.253 µM,0.703
same,relative viability,EMC-BAC-2; first compound 0.8 µM,0.682
same,relative viability,EMC-BAC-2; first compound 2.53 µM,0.668
same,relative viability,EMC-BAC-2; first compound 8 µM,0.744
same,relative viability,LOU-NH91; first compound 0.08 µM,0.459
same,relative viability,LOU-NH91; first compound 0.253 µM,0.731
same,relative viability,LOU-NH91; first compound 0.8 µM,0.723
same,relative viability,LOU-NH91; first compound 2.53 µM,0.733
same,relative viability,LOU-NH91; first compound 8 µM,0.7
same,relative viability,RERF-LC-KJ; first compound 0.08 µM,0.693
same,relative viability,RERF-LC-KJ; first compound 0.253 µM,0.724
same,relative viability,RERF-LC-KJ; first compound 0.8 µM,0.807
same,relative viability,RERF-LC-KJ; first compound 2.53 µM,0.841
same,relative viability,RERF-LC-KJ; first compound 8 µM,0.711
same,relative viability,EKVX; first compound 0.253 µM,0.806
same,relative viability,EKVX; first compound 0.8 µM,0.934
same,relative viability,EKVX; first compound 2.53 µM,0.853
same,relative viability,EKVX; first compound 8 µM,0.856
same,relative viability,EPLC-272H; first compound 0.08 µM,0.838
same,relative viability,EPLC-272H; first compound 0.253 µM,0.962
same,relative viability,EPLC-272H; first compound 0.8 µM,0.894
same,relative viability,EPLC-272H; first compound 2.53 µM,0.912
same,relative viability,EPLC-272H; first compound 8 µM,0.771
same,relative viability,NCI-H358; first compound 0.08 µM,0.761
same,relative viability,NCI-H358; first compound 0.253 µM,0.775
same,relative viability,NCI-H358; first compound 0.8 µM,0.786
same,relative viability,NCI-H358; first compound 2.53 µM,0.808
same,relative viability,NCI-H358; first compound 8 µM,0.852
same,relative viability,LK-2; first compound 0.08 µM,1.12
same,relative viability,LK-2; first compound 0.253 µM,1.05
same,relative viability,LK-2; first compound 0.8 µM,1.01
same,relative viability,LK-2; first compound 2.53 µM,1.01
same,relative viability,LK-2; first compound 8 µM,0.779
same,relative viability,NCI-H2087; first compound 0.08 µM,0.847
same,relative viability,NCI-H2087; first compound 0.253 µM,1.1
same,relative viability,NCI-H2087; first compound 0.8 µM,1.01
same,relative viability,NCI-H2087; first compound 2.53 µM,0.975
same,relative viability,NCI-H2087; first compound 8 µM,0.89
same,relative viability,HCC-78; first compound 0.08 µM,0.406
same,relative viability,HCC-78; first compound 0.253 µM,0.366
same,relative viability,HCC-78; first compound 0.8 µM,0.294
same,relative viability,HCC-78; first compound 2.53 µM,0.293
same,relative viability,HCC-78; first compound 8 µM,0.329
same,relative viability,NCI-H1944; first compound 0.08 µM,0.654
same,relative viability,NCI-H1944; first compound 0.253 µM,0.817
same,relative viability,NCI-H1944; first compound 0.8 µM,0.815
same,relative viability,NCI-H1944; first compound 2.53 µM,0.824
same,relative viability,NCI-H1944; first compound 8 µM,0.81
